Laboratory results from US11505533B2, “Metabolically stable N-acylaminooxadiazoles useful as antibacterial agents” (MICROBIOTIX, INC., priority 2017, dated 2022).
Values after ≈ are worked out from the molar mass of the structure shown.

Assays:
[1] = test system: E. coli TolC(−); experiment: TolC(−) MIC (NB); format: cell-based; conditions: Escherichia coli, read-out: TolC(−) MIC (μM)(NB)
[2] = Mammalian cell cytotoxicity
[3] = Aqueous solubility, nephelometry; conditions: water, kinetic from dmso stock

Structure (SMILES) | MIC [1] | CC50 [2] | solubility [3]
O=C(Nc1nnc(-c2ccc(F)cc2)o1)c1cnc(Oc2ccccc2)nc1 [compound 4314] | 6.25 µM (≈ 2.36 µg/mL) | – | –
CC(C)OC1CCN(C(=O)Nc2nnc(-c3ccc(F)cc3)o2)CC1 [compound 4994] | 44.5 µM (≈ 15.5 µg/mL) | – | –
CN1CCCN(C(=O)Nc2nnc(-c3ccc(F)cc3)o2)CC1 [compound 4349] | ≥ 100 µM | – | –
O=C(Nc1nnc(C2CCCCC2)o1)c1ccc(OC2CCCCC2)nc1 [compound 4925] | 1.56 µM (≈ 0.578 µg/mL) | – | –
Cc1cc(F)cc(C)c1-c1nnc(NC(=O)N2CCC(Cl)=C(Cl)C2)o1 [compound 5203] | 0.781 µM (≈ 0.301 µg/mL) | – | –
O=C(Nc1nnc(-c2ccc(F)cc2)o1)N1CCc2sccc2C1 [compound 4940] | 3.13 µM (≈ 1.08 µg/mL) | – | –
O=C(Nc1nnc(-c2ccc(F)cc2)o1)N1CCC(C2COC2)CC1 [compound 4740] | 100 µM (≈ 34.6 µg/mL) | – | –
CC1=CCN(C(=O)Nc2nnc(C3CCCCC3)o2)CC1 [compound 4805] | 25 µM (≈ 7.26 µg/mL) | – | –
CCCC1CCN(C(=O)Nc2nnc(-c3ccc(F)cc3)o2)CC1 [compound 4934] | 6.25 µM (≈ 2.08 µg/mL) | – | –
C[C@@H]1CCCN(C(=O)Nc2nnc(-c3ccc(F)cc3)o2)C1 [compound 5200] | 12.5 µM (≈ 3.8 µg/mL) | – | –
O=C(Nc1nnc(-c2ccc(F)cc2)o1)N1CCN2CCCCC2C1 (stereo not shown) [compound 4199] | ≥ 100 µM | – | –
CC1(C)CCCN(C(=O)Nc2nnc(-c3ccc(F)cc3)o2)CC1 [compound 4922] | 12.5 µM (≈ 4.15 µg/mL) | – | –
CC1=C(C)CN(C(=O)Nc2nnc(-c3ccc(F)cc3)o2)CC1 [compound 4738] | 7 µM (≈ 2.21 µg/mL) | – | –
O=C(Nc1nnc(-c2ccc(F)cc2)o1)N1CCc2ccccc2CC1 [compound 4936] | 6.25 µM (≈ 2.2 µg/mL) | – | –
O=C(Nc1nnc(-c2ccc(F)cc2)o1)N1CCC(Nc2ccccc2)CC1 [compound 4741] | 11.1 µM (≈ 4.23 µg/mL) | – | –
O=C(Nc1nnc(-c2ccc3c(c2)CCC3)o1)N1CC=C(C(F)(F)F)CC1 [compound 5155] | 1.97 µM (≈ 0.745 µg/mL) | – | –
O=C(Nc1nnc(-c2ccc(F)cc2)o1)N1CCC(O)CC1 [compound 4734] | 100 µM (≈ 30.6 µg/mL) | – | –
O=C(Nc1nnc(-c2ccc(F)cc2)o1)N1CCC(c2ccccc2)CC1 [compound 5199] | 5.57 µM (≈ 2.04 µg/mL) | – | –
CC1CC(C)CN(C(=O)Nc2nnc(-c3ccc(F)cc3)o2)C1 (stereo not shown) [compound 4768] | 6.25 µM (≈ 1.99 µg/mL) | – | –
Cc1nnc(NC(=O)c2ccc(Oc3ccccc3)nc2)o1 [compound 4468] | ≥ 100 µM | – | –
CC1CCN(C(=O)Nc2nnc(-c3ccc(F)cc3)o2)CC1 [compound 4684] | 15.8 µM (≈ 4.79 µg/mL) | – | –

Structure (SMILES) | MIC [1] | CC50 [2] | solubility [3]
CCOC1CCN(C(=O)Nc2nnc(-c3ccc(F)cc3)o2)CC1 [compound 4993] | 44.5 µM (≈ 14.9 µg/mL) | – | –
Cc1ccccc1-c1nnc(NC(=O)c2ccc(Oc3ccccc3)nc2)o1 [compound 4498] | 2.21 µM (≈ 0.823 µg/mL) | > 100 µM | –
CC(C)(C)C1CCN(C(=O)Nc2nnc(-c3ccc(F)cc3)o2)CC1 [compound 4938] | 4.96 µM (≈ 1.72 µg/mL) | – | –
O=C(Nc1nnc(-c2ccc(F)cc2)o1)N1CCCCC1 [compound 4699] | 25 µM (≈ 7.26 µg/mL) | – | –
COc1cc2c(cc1OC)CN(C(=O)Nc1nnc(-c3ccc(F)cc3)o1)CC2 [compound 4333] | 12.5 µM (≈ 4.98 µg/mL) | – | –
O=C(Nc1nnc(-c2ccc(F)cc2)o1)N1CCC2(CCCC2)CC1 [compound 4939] | 6.25 µM (≈ 2.15 µg/mL) | – | –
COC(=O)C1CCN(C(=O)Nc2nnc(-c3ccc(F)cc3)o2)CC1 [compound 4701] | 50 µM (≈ 17.4 µg/mL) | – | –
O=C(Nc1nnc(-c2ccc(F)cc2)o1)N1CCC2CCCCC2C1 (stereo not shown) [compound 4698] | 8.84 µM (≈ 3.04 µg/mL) | – | –
O=C(Nc1nnc(C2CCCCC2)o1)N1CC=C(C(F)(F)F)CC1 [compound 4806] | 12.5 µM (≈ 4.3 µg/mL) | – | –
CC(C)(C)COc1ccc(C(=O)Nc2nnc(-c3ccc(F)cc3)o2)cc1 [compound 4284] | 70.7 µM (≈ 26.1 µg/mL) | – | 3.12 µM (≈ 1.15 µg/mL)
O=C(Nc1nnc(-c2ccc(F)cc2)o1)N1CCCC1 [compound 4346] | 100 µM (≈ 27.6 µg/mL) | – | –
CC1=CCN(C(=O)Nc2nnc(-c3c(C)cc(F)cc3C)o2)CC1 [compound 5216] | 12.5 µM (≈ 4.13 µg/mL) | – | –
O=C(Nc1nnc(-c2ccc(F)cc2)o1)N1CCC2(CC1)COC2 [compound 4739] | 100 µM (≈ 33.2 µg/mL) | – | –
CC(=O)N1CCN(C(=O)Nc2nnc(-c3ccc(F)cc3)o2)CC1 [compound 4198] | ≥ 100 µM | – | –
COC(=O)C1=CCN(C(=O)Nc2nnc(-c3ccc(F)cc3)o2)CC1 [compound 4348] | 12.5 µM (≈ 4.33 µg/mL) | > 100 µM | 25 µM (≈ 8.66 µg/mL)
O=C(Nc1nnc(-c2ccc(N3CCCC3)cc2)o1)N1CCc2ccccc2C1 [compound 5222] | 25 µM (≈ 9.74 µg/mL) | – | –
O=C(Nc1nnc(-c2ccc(F)cc2)o1)N1CCCCCC1 [compound 4700] | 15.8 µM (≈ 4.79 µg/mL) | – | –
COC(=O)c1ccc(CC2CCN(C(=O)Nc3nnc(-c4ccc(F)cc4)o3)CC2)cc1 [compound 4779] | 12.5 µM (≈ 5.48 µg/mL) | – | –
O=C(Nc1nnc(-c2ccc(F)cc2)o1)N1CC2CC(C1)O2 [compound 4380] | ≥ 100 µM | – | –
Cc1cncc(Oc2ccc(C(=O)Nc3nnc(-c4ccc(F)cc4)o3)cc2)n1 [compound 4290] | 11.1 µM (≈ 4.36 µg/mL) | – | –
O=C(Nc1nnc(-c2ccc(F)cc2)o1)N1CC2CCC(C1)O2 [compound 4381] | 100 µM (≈ 31.8 µg/mL) | – | –
